Measured values taken from PubChem BioAssay AID2060331 (Molecular Pharmacology Branch, DTP, NCI, 2025).
pIC50: −log10 of the molar value.

Tested on: Hs578T multi-cell spheroids, viability
Assay: Anticancer human tumor Hs578T cell line growth inhibition [IpAb];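 note: drug exposure lasted 7 days before readout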
Conditions: for pIC50: curve of first compound; for viability, T/C: stronger effect = lower value
Outline: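 Multi-cell spheroids of 60% tumour cells, 25% HUVEC and 15% MSC in ultra-low-attachment U-bottom wells, treated with agents combined with ipatasertib or abemaciclib. Half-log ranges top out near clinical Cmax, or 10 microM when Cmax is unknown.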

[1] = second compound 0.01 µM, first compound 0.0316 µM
[2] = second compound 0.01 µM, first compound 0.1 µM
[3] = second compound 0.0316 µM, first compound 0.0316 µM
[4] = second compound 0.0316 µM, first compound 0.1 µM
[5] = second compound 0.1 µM, first compound 0.0316 µM
[6] = second compound 0.1 µM, first compound 0.1 µM
[7] = second compound 0.316 µM, first compound 0.0316 µM
[8] = second compound 0.316 µM, first compound 0.1 µM
[9] = second compound 1 µM, first compound 0.0316 µM
[10] = second compound 1 µM, first compound 0.1 µM

SMILES: CC(=O)c1c(C)c2cnc(Nc3ccc(N4CCNCC4)cn3)nc2n(C2CCCC2)c1=O + CCN1CCN(Cc2ccc(Nc3ncc(F)c(-c4cc(F)c5nc(C)n(C(C)C)c5c4)n3)nc2)CC1
- pIC50 (second compound 0.01 µM): < 6.52
- pIC50 (second compound 0.0316 µM): < 6.52
- pIC50 (second compound 0.1 µM): < 6.52
- pIC50 (second compound 0.316 µM): < 6.52
- pIC50 (second compound 1 µM): < 6.52
- viability, T/C (second compound 0.01 µM, first compound 0.000949 µM): 106%
- viability, T/C (second compound 0.01 µM, first compound 0.003 µM): 95.1%
- viability, T/C (second compound 0.01 µM, first compound 0.00949 µM): 95%
- viability, T/C (second compound 0.01 µM, first compound 0.03 µM): 81.9%
- viability, T/C (second compound 0.01 µM, first compound 0.0949 µM): 77.5%
- viability, T/C (second compound 0.01 µM, first compound 0.3 µM): 63.4%
- viability, T/C (second compound 0.0316 µM, first compound 0.000949 µM): 91.3%
- viability, T/C (second compound 0.0316 µM, first compound 0.003 µM): 89.1%
- viability, T/C (second compound 0.0316 µM, first compound 0.00949 µM): 90.3%
- viability, T/C (second compound 0.0316 µM, first compound 0.03 µM): 73.3%
- viability, T/C (second compound 0.0316 µM, first compound 0.0949 µM): 69.3%
- viability, T/C (second compound 0.0316 µM, first compound 0.3 µM): 60.5%
- viability, T/C (second compound 0.1 µM, first compound 0.000949 µM): 75.6%
- viability, T/C (second compound 0.1 µM, first compound 0.003 µM): 80.8%
- viability, T/C (second compound 0.1 µM, first compound 0.00949 µM): 81.8%
- viability, T/C (second compound 0.1 µM, first compound 0.03 µM): 80.8%
- viability, T/C (second compound 0.1 µM, first compound 0.0949 µM): 66%
- viability, T/C (second compound 0.1 µM, first compound 0.3 µM): 73.3%
- viability, T/C (second compound 0.316 µM, first compound 0.000949 µM): 81.3%
- viability, T/C (second compound 0.316 µM, first compound 0.003 µM): 85.2%
- viability, T/C (second compound 0.316 µM, first compound 0.00949 µM): 82.2%
- viability, T/C (second compound 0.316 µM, first compound 0.03 µM): 79.8%
- viability, T/C (second compound 0.316 µM, first compound 0.0949 µM): 70.7%
- viability, T/C (second compound 0.316 µM, first compound 0.3 µM): 68%
- viability, T/C (second compound 1 µM, first compound 0.000949 µM): 93%
- viability, T/C (second compound 1 µM, first compound 0.003 µM): 98.5%
- viability, T/C (second compound 1 µM, first compound 0.00949 µM): 93.7%
- viability, T/C (second compound 1 µM, first compound 0.03 µM): 96.7%
- viability, T/C (second compound 1 µM, first compound 0.0949 µM): 89.5%
- viability, T/C (second compound 1 µM, first compound 0.3 µM): 89%

SMILES: CC1(C)CCC(CN2CCN(c3ccc(C(=O)NS(=O)(=O)c4ccc(NCC5CCOCC5)c([N+](=O)[O-])c4)c(Oc4cnc5[nH]ccc5c4)c3)CC2)=C(c2ccc(Cl)cc2)C1 + CCN1CCN(Cc2ccc(Nc3ncc(F)c(-c4cc(F)c5nc(C)n(C(C)C)c5c4)n3)nc2)CC1
- pIC50 (second compound 0.01 µM): 5.22
- pIC50 (second compound 0.0316 µM): 5.25
- pIC50 (second compound 0.1 µM): 5.26
- pIC50 (second compound 0.316 µM): 5.24
- pIC50 (second compound 1 µM): 5.16
- viability, T/C [1]: 93.3%
- viability, T/C [2]: 107%
- viability, T/C (second compound 0.01 µM, first compound 0.316 µM): 103%
- viability, T/C (second compound 0.01 µM, first compound 1 µM): 99.8%
- viability, T/C (second compound 0.01 µM, first compound 3.16 µM): 90.4%
- viability, T/C (second compound 0.01 µM, first compound 10 µM): 16.8%
- viability, T/C [3]: 96.4%
- viability, T/C [4]: 97%
- viability, T/C (second compound 0.0316 µM, first compound 0.316 µM): 98.1%
- viability, T/C (second compound 0.0316 µM, first compound 1 µM): 91.1%
- viability, T/C (second compound 0.0316 µM, first compound 3.16 µM): 81%
- viability, T/C (second compound 0.0316 µM, first compound 10 µM): 18.6%
- viability, T/C [5]: 87.2%
- viability, T/C [6]: 95.3%
- viability, T/C (second compound 0.1 µM, first compound 0.316 µM): 84.6%
- viability, T/C (second compound 0.1 µM, first compound 1 µM): 90.9%
- viability, T/C (second compound 0.1 µM, first compound 3.16 µM): 76.7%
- viability, T/C (second compound 0.1 µM, first compound 10 µM): 20.8%
- viability, T/C [7]: 86.3%
- viability, T/C [8]: 89.1%
- viability, T/C (second compound 0.316 µM, first compound 0.316 µM): 80.6%
- viability, T/C (second compound 0.316 µM, first compound 1 µM): 87.4%
- viability, T/C (second compound 0.316 µM, first compound 3.16 µM): 80.2%
- viability, T/C (second compound 0.316 µM, first compound 10 µM): 21.3%
- viability, T/C [9]: 96.5%
- viability, T/C [10]: 98.2%
- viability, T/C (second compound 1 µM, first compound 0.316 µM): 91.8%
- viability, T/C (second compound 1 µM, first compound 1 µM): 96.7%
- viability, T/C (second compound 1 µM, first compound 3.16 µM): 101%
- viability, T/C (second compound 1 µM, first compound 10 µM): 26.9%

SMILES: CC(C)n1nc(-c2ccc3oc(N)nc3c2)c2c(N)ncnc21 + CCN1CCN(Cc2ccc(Nc3ncc(F)c(-c4cc(F)c5nc(C)n(C(C)C)c5c4)n3)nc2)CC1
- pIC50 (second compound 0.01 µM): 8.11
- pIC50 (second compound 0.0316 µM): 8.26
- pIC50 (second compound 0.1 µM): 8.25
- pIC50 (second compound 0.316 µM): 8.25
- pIC50 (second compound 1 µM): 8.00
- viability, T/C (second compound 0.01 µM, first compound 0.000316 µM): 94.1%
- viability, T/C (second compound 0.01 µM, first compound 0.001 µM): 88.5%
- viability, T/C (second compound 0.01 µM, first compound 0.00316 µM): 69.6%
- viability, T/C (second compound 0.01 µM, first compound 0.01 µM): 46.2%
- viability, T/C [1]: 19.9%
- viability, T/C [2]: 13.2%
- viability, T/C (second compound 0.0316 µM, first compound 0.000316 µM): 87.5%
- viability, T/C (second compound 0.0316 µM, first compound 0.001 µM): 72.3%
- viability, T/C (second compound 0.0316 µM, first compound 0.00316 µM): 63.2%
- viability, T/C (second compound 0.0316 µM, first compound 0.01 µM): 39.8%
- viability, T/C [3]: 18.3%
- viability, T/C [4]: 14.9%
- viability, T/C (second compound 0.1 µM, first compound 0.000316 µM): 78.8%
- viability, T/C (second compound 0.1 µM, first compound 0.001 µM): 78.1%
- viability, T/C (second compound 0.1 µM, first compound 0.00316 µM): 59.1%
- viability, T/C (second compound 0.1 µM, first compound 0.01 µM): 40.8%
- viability, T/C [5]: 18.7%
- viability, T/C [6]: 15.2%
- viability, T/C (second compound 0.316 µM, first compound 0.000316 µM): 82%
- viability, T/C (second compound 0.316 µM, first compound 0.001 µM): 76.2%
- viability, T/C (second compound 0.316 µM, first compound 0.00316 µM): 59%
- viability, T/C (second compound 0.316 µM, first compound 0.01 µM): 40.6%
- viability, T/C [7]: 23.1%
- viability, T/C [8]: 15.8%
- viability, T/C (second compound 1 µM, first compound 0.000316 µM): 93.5%
- viability, T/C (second compound 1 µM, first compound 0.001 µM): 90.6%
- viability, T/C (second compound 1 µM, first compound 0.00316 µM): 69%
- viability, T/C (second compound 1 µM, first compound 0.01 µM): 48.8%
- viability, T/C [9]: 34.9%
- viability, T/C [10]: 19.8%
